Assays:
[1] = plasma concentrations of tocopherols and 5-NO2-γ-tocopherol in volunteers; assay type: in vivo, human; details: mean ± SEM
Source text: Smoking is recognized as a major contributing factor to heart disease and γ-T reportedly decreases more than α-T in smokers. Hypertension is also a strong risk factor for heart disease. […] Seven subjects indicated a chronic hypertensive condition. As outlined in Table I, γ-tocopherol tended to decrease in hypertensive subjects while nitration products tended to increase in both smokers and hypertensive subjects. This was the trend regardless of whether the tocopherol concentrations were normalized to plasma triglycerides (Table I).

αKGDH [2] = assay: αKGDH protection against SIN-1 nitrative stress in isolated mitochondria in vitro; assay type: biochemical, rat
Protocol: FIG. 3 is a graph showing rat brain mitochondria exposed to 0.4 mM SIN-1 for 1 H after addition of tocopherol. (•)α-tocopherol; (▪)γ-tocopherol. The scale bars labeled [α]norm and [Y]norm indicate the normal endogenous quantities of α-tocopherol and γ-tocopherol, respectively, in human brain.
αKGDH is a rate-limiting enzyme of mitochondrial energy production which is diminished in conditions of vascular ischemia (53-58); augmentation of the enzyme with α-ketoglutarate has been found beneficial and α-ketoglutarate is now included as a component in cardioplegia fluid to improve recovery after heart surgery (59). We undertook to determine whether γT protects αKGDH against nitrative stress in vitro. Mitochondria were isolated from adult rat brain then sonicated briefly in the presence of either αT or γT, or an ethanol vehicle. Mitochondria were then exposed to SIN-1, which generates NO and superoxide simultaneously at a known rate (7). Combination of NO and superoxide yields ONOO^−. in situ (discussed above).

[3] = rat, in vivo, 30 days
Protocol: Rat pups were injected intraperitoneally (I.P.) with αT or γT in an olive oil vehicle every other day for 30 days beginning 2 days after birth; control animals received vehicle only. Olive oil was chosen as a vehicle because of the low tocopherol content in this particular vegetable oil. […] One half of each animal group was injected with a septic dose of LPS (2.5 mg/kg, I.P). After 24 H, animals were killed and organs collected. αKGDH was assayed in heart tissue and tocopherols were measured by HPLC-ECD/PDA.

[4] = human plasma γT relative to αT; assay type: in vivo
Source text: Chemistry of tocopherol reaction with oxidizing agents. γ-Tocopherol is a natural product (a desmethyl tocopherol) of plant origin, present in many vegetable oils, especially soybean oil (1-2). γ-Tocopherol is normally taken into the body through consumption of foodstuffs. Human plasma γT concentration is variously reported as 5-30% of αT (3). The γTαT ratio varies markedly among individuals; plasma γT/αT proportionalities may be as low as 0.2% and as high as 30% (inventors' observations). Both αT and γT are absorbed equally well by the gut, but γT is packaged into lipoproteins less effectively than αT (4). For this reason, αT supplementation decreases systemic γT concentration (3-4).
γ-Tocopherol in human biology and cardiovascular disease. Relative to αT, a dearth of epidemiological data exists for γT. Human plasma γT concentration is variously reported as between 5-30% that of αT (41). In platelet-poor plasma, we find that 7% is very close to the correct value in young healthy subjects. The γT/αT ratio varies markedly among individuals; we have observed plasma γT/αT proportionalities as low as 0.2% and as high as 30%. γT is now a major tocopherol in the US diet, due to the high intake of soybean and vegetable oils that are abundant sources of γT (40). Both αT and γT are absorbed equally well by the gut, but γT is packaged into lipoproteins less effectively than αT (39). For this reason, αT supplementation decreases systemic γT concentration (41-42). δ-Tocopherol, β-tocopherol and tocol (other demethylated tocopherol homologs) exist in human plasma at approximately 1:10 ratios relative to γT (41). Detailed demographic data regarding plasma and tissue levels of desmethylated tocopherols and their oxidation products have never been published. While extensive data has been collected on α-tocopherol as a possibly beneficial molecule in cardiovascular disease, very little data has been collected on γT.

[5] = tested on: ECV304 human endothelial cells; details: 10 μM α-T, 10 μM γ-T or 5 μM of each; 19 hours preincubation; 5 mM SIN-1; 24 hours
Protocol: Cultured ECV304 human endothelial cells were exposed to SIN-1 in the presence of 10 μM α-T, 10 μM γ-T or 5 μM of each (FIG. 5). Tocopherols were incubated with the cells for 19 hours prior to addition of SIN-1. Viability was assayed 24 hours later using a standard tetrazolium (MTT) reduction assay.

[6] = tocopherol-depleted rats fed two weeks after iron-dextran; cited from earlier work
[7] = 100 mg/kg/day, 10 days, cited from earlier work
[8] = variously reported; cited from earlier work
C3H/10T1/2 fibroblasts = details: methylcholanthrene-treated C3H/10T1/2 fibroblasts; cited from earlier work
[9] = cited from earlier work
[10] = liposomes exposed to ONOO−; cited from earlier work
platelets = assay: platelet aggregation in vitro (PRP, aggregometer); assay type: cell-based, human; details: for Platelet Aggregation (% maximum): 500 μM α-tocopherol or 50 μM γ-tocopherol, 1 H preincubation
Protocol: […] inhibits platelet aggregation in vitro and in vivo, apparently through antagonism of protein kinase C (PKC) (60-63). Concentrations of αT necessary to inhibit aggregation in vitro are on the order of 500 μM (60-63), or approximately 10-fold higher than achieved in vivo. The concentration difference between in vitro and in vivo efficacy has been rationalized on the basis of incomplete tocopherol incorporation into membranes during in vitro incubation (63). Nonetheless, subjects supplemented with oral αT have diminished platelet aggregation (63). We therefore sought to investigate the ability of γ-tocopherol to inhibit platelet aggregation. PRP was obtained from two volunteers. Platelets were stimulated to aggregate with ADP, thrombin receptor activating peptide (TRAP) or the PKC agonist phorbol myristyl acetate (PMA) and aggregation was measured using a 4-channel clinical aggregometer. Specific platelet samples were preincubated with vehicle, αT, γT or 5-NO2-γ-tocopherol for 1 H prior to stimulation. Tocopherol concentrations were set at 10-fold excess to average PRP levels based on the precedent of previous in vitro aggregation experiments that used αT as an inhibitor (60-63).

αKGDH [11] = assay: heart αKGDH activity after tocopherol supplementation, with or without LPS challenge; assay type: in vivo, rat
Protocol: Rats were injected with 15 mg of tocopherol over the first 1 month of life; specific groups were then challenged with a septic dose of LPS and heart αKGDH activity was assayed 24 H later. *p<0.1 relative to vehicle; †p<0.05 relative to vehicle. N=5/group.
Rat pups were injected intraperitoneally (I.P.) with αT or γT in an olive oil vehicle every other day for 30 days beginning 2 days after birth; control animals received vehicle only. […] A total of 15 mg tocopherol was delivered to each animal over the 30 day period; animal weight at the end of the period was approximately 90 g for all three groups. One half of each animal group was injected with a septic dose of LPS (2.5 mg/kg, I.P). After 24 H, animals were killed and organs collected. αKGDH was assayed in heart tissue and tocopherols were measured by HPLC-ECD/PDA.

[12] = rat brain mitochondria, 400 μM SIN-1, one hour

Structure (SMILES): Cc1c(C)c2c(c([N+](=O)[O-])c1O)CCC(C)(CCCC(C)CCCC(C)CCCC(C)C)O2 (stereo not drawn) [5-NO2-γ-tocopherol, 5-nitro-γ-tocopherol]
- plasma concentration ([1]; hypertensives, N = 7): 20.0 ± 3.7 ng/mL plasma
- plasma concentration normalized to triglyceride ([1]; hypertensives, N = 7): 34.9 ± 10.9 ng/mg triglyceride
- plasma concentration ([1]; population, N = 54): 11.3 ± 1.6 ng/mL plasma
- plasma concentration normalized to triglyceride ([1]; population, N = 54): 14.0 ± 2.5 ng/mg triglyceride
- plasma concentration ([1]; smokers, N = 7): 20.0 ± 3.3 ng/mL plasma
- plasma concentration normalized to triglyceride ([1]; smokers, N = 7): 23.5 ± 7.2 ng/mg triglyceride

Structure (SMILES): Nc1c[n+](N2CCOCC2)no1 [SIN-1, reference compound]
- diminution of αKGDH activity (αKGDH [2]; 400 μM SIN-1, one hour, rat brain mitochondria): approximately 50%

Structure (SMILES): Cc1c(O)cc2c(c1C)O[C@](C)(CCC[C@H](C)CCC[C@H](C)CCCC(C)C)CC2 [γ-tocopherol]
- heart tissue tocopherol concentration, controls [3]: 1.8±0.4 ng/mg protein
- highest observed plasma γT/αT proportionality ([4]; inventors' observations): 30%
- lowest observed plasma γT/αT proportionality ([4]; inventors' observations): 0.2%
- plasma γT concentration as % of αT ([4]; platelet-poor plasma, young healthy subjects): ~7%
- plasma concentration ([1]; hypertensives, N = 7): 0.463 ± 0.165 μg/mL plasma
- plasma concentration normalized to triglyceride ([1]; hypertensives, N = 7): 0.606 ± 0.153 μg/mg triglyceride
- plasma concentration ([1]; population, N = 54): 0.713 ± 0.067 μg/mL plasma
- plasma concentration normalized to triglyceride ([1]; population, N = 54): 0.813 ± 0.088 μg/mg triglyceride
- plasma concentration ([1]; smokers, N = 7): 0.680 ± 0.153 μg/mL plasma
- plasma concentration normalized to triglyceride ([1]; smokers, N = 7): 0.810 ± 0.213 μg/mg triglyceride
- concentration offering as much αKGDH protection as 1-10 μM αT (αKGDH [2]; 400 μM SIN-1, one hour): 50 to 100 nM
- αKGDH protection in side-by-side comparison (αKGDH [2]; all concentrations tested): more protective than αT
- αKGDH protection relative to corresponding concentration of αT (αKGDH [2]; concentrations near 100 nM, 400 μM SIN-1): approximately 5 times
- maximal αKGDH protection relative to αT (αKGDH [2]; [12]): approximately 2.5 times
- tocopherol concentration of maximal αKGDH protection (αKGDH [2]; [12]): 1 µM
- effect on SIN-1 toxicity (MTT viability) [5]: promoted viability somewhat
- effectiveness at inhibiting systemic lipid oxidation relative to αT [6]: approximately 35%
- increase of plasma level above baseline ([7]; own supplementation): 6 fold
- plasma γT concentration as % of the αT concentration ([7]; γT supplemented rats): ≤ 10%
- human plasma γT concentration as % of αT [8]: 5-30%
- effectiveness at inhibiting neoplastic transformation relative to αT (C3H/10T1/2 fibroblasts): 4 fold
- delay/increase of time to occlusive thrombus ([9]; 100 mg/kg/day for 10 days, 29% FeCl3 patch): 65%
- inhibition of platelet aggregation kinetics, efficacy relative to αT supplementation ([9]; 100 mg/kg/day for 10 days): 2 fold
- potency relative to αT at inhibition of thrombogenic correlates, in reference to plasma tocopherol concentrations ([9]; rat, in vivo): 20-30 times
- superoxide dismutase activity in the aortas compared to αT treated group ([9]; rat, in vivo): increased significantly
- effectiveness at inhibiting lipid hydroperoxide formation relative to αT [10]: twice as effective
- Platelet Aggregation (% maximum) (platelets; ADP 20 μM, Subject 1): 117 % maximum
- Platelet Aggregation (% maximum) (platelets; ADP 20 μM, Subject 2): 90 % maximum
- Platelet Aggregation (% maximum) (platelets; PMA 200 nM, Subject 1): 57 % maximum
- Platelet Aggregation (% maximum) (platelets; PMA 200 nM, Subject 2): 29 % maximum
- Platelet Aggregation (% maximum) (platelets; TRAP 20 μM, Subject 1): 73 % maximum
- Platelet Aggregation (% maximum) (platelets; TRAP 20 μM, Subject 2): 88 % maximum
- ability to inhibit PKC-linked platelet aggregation (platelets; TRAP or PMA as agonist): similarly efficacious to αT
- heart αKGDH activity after LPS challenge, ranking among groups (αKGDH [11]; LPS 2.5 mg/kg I.P., 24 H): highest heart αKGDH activity
- increase of mean heart αKGDH activity (αKGDH [11]; animals not subjected to LPS stress, 15 mg tocopherol I.P. over 30 days): 40%

From patent US6346544B2, “Desmethyl tocopherols for protecting cardiovascular tissue” (Oklahoma Medical Research Foundation, priority 2000, dated 2002)
